{"source": "patent US20100285959A1", "about": "“HERBICIDAL MIXTURES” (priority 2006, published 2010)", "key": {"wild mustard (SINAR)": {"tested_on": "wild mustard (SINAR)", "assay": "Test 24 growth chamber, postemergence", "assay_type": "in vivo, Sinapis arvensis", "details": "17 DAA", "description": "Plants were treated postemergence at the 2-4 leaf growth stage, and each treatment was replicated three times. […] Plants were watered as needed. […] Results for barley and wheat are the means across varieties of the three replicates, and results for the weeds are the means of the three replicates."}, "giant foxtail (SETFA) [1]": {"tested_on": "giant foxtail (SETFA)", "assay": "Test 25 field trial, postemergence, growth as percent of control", "assay_type": "in vivo, Setaria faberi", "from_the_text": "Corn seeds (hybrid ‘Pioneer 31G96 RR’) were planted in mid spring season, 3.8 cm deep in a clay loam soil having 2% organic matter and a pH of 6.6. Plots were 6.1 m long by 3.0 m wide with rows spaced 76 cm apart. Seeds were spaced 15 cm apart within the rows. The field was managed using conventional tillage practices. […] Giant ragweed and Pennsylvania smartweed could only be evaluated 14 days after application. […] Results are the means of the three replicates. This growth inhibition data was converted to results in the form of “plant growth as a percent of control plant growth” using the calculation “100 minus growth inhibition”.\nWhen this form of Colby's Equation is used, if the observed effects on weeds are less than the expected values, the mixture is synergistic."}, "[2]": {"tested_on": "common lambsquarters (CHEAL)", "assay": "Test 26 field trial, postemergence", "assay_type": "in vivo, Chenopodium album", "design": "scale not given here", "from_the_text": "(§1) Corn seeds (hybrid ‘Pioneer 31G96’) were planted in mid spring season, 3.8 cm deep in a silt loam soil having 2% organic matter and a pH of 6.6. Plots were 6.1 m long by 3.0 m wide with rows spaced 76 cm apart. Seeds were spaced 15 cm apart within the rows. The field was managed using conventional tillage practices. […] All treatments also included a surfactant. […] Some of the weed species could not be evaluated at every timing. […] Results are the means of the three replicates."}, "giant foxtail (SETFA) [3]": {"tested_on": "giant foxtail (SETFA)", "assay": "Test 26 field trial, postemergence", "assay_type": "in vivo, Setaria faberi", "design": "scale not given here", "from_the_text": "as §1"}, "flint corn (ZEAMI)": {"tested_on": "flint corn (ZEAMI)", "assay": "Test 11 field trial, preemergence", "assay_type": "in vivo, Zea mays L. ssp. indurata", "design": "scale not given here", "details": "atrazine 1500 or metolachlor 2500 g a.i./ha alone", "from_the_text": "Corn seeds (hybrid ‘Pioneer 3041’) were planted in mid spring season, 5 cm deep in a clay soil having 2.6% organic matter and a pH of 5.6. Plots were 8 m long by 1.5 m wide with rows spaced 80 cm apart. Seeds were spaced 15 cm apart within the rows. The field was managed using conventional tillage practices. […] Treatments consisted of Compound 2 or\nGoosegrass was not evaluated 16 or 91 days after application."}, "[4]": {"tested_on": "smallflower umbrella sedge (CYPDI)", "assay": "Test 32 greenhouse, simulated flooded rice culture", "assay_type": "in vivo, Cyperus difformis", "details": "postemergence to flood, 21 DAA", "description": "(§2) A greenhouse trial was conducted to evaluate the effects of Compound 1 and isoxadifen-ethyl at different ratios in simulated flooded rice culture. Plastic pots (11-cm diameter) were partially filled with non-sterilized Tama silt loam soil containing a 15:57:28 ratio of sand, silt and clay and 2.9% organic matter. Seeds of Heteranthera limosa (ducksalad; HETLI), Cyperus difformis (smallflower umbrella sedge; CYPDI), one stand of Echinochloa crus-galli (barnyardgrass; ECHCG), and one stand of four rice seedlings (Oryza sativa cv. ‘M202’; ORYSA) were planted into a single 11-cm diameter pot for each rate and mixture of rates. To obtain this planting, C. difformis and H. limosa seeds were planted separately on the surface soil layer at particular locations within each pot. Water levels were brought to a puddled condition above the soil surface directly after planting. E. crus-galli and rice seeds were planted in cavity trays in the silt loam soil and transplanted at the 1.5 and 2.0 leaf stage, respectively. E. crus-galli and rice plants were transplanted to about 2-cm depth by transferring plugs from the cavity trays. Plantings were sequential so that these plant species all reached the 2.0- to 2.5-leaf stage in the 11-cm diameter pot at time of treatment. Plantings were established and maintained in a greenhouse with day and night temperatures of about 29.5 and 26.7° C. respectively; supplemental balanced lighting was provided to maintain a 16-hour photoperiod. Pots were fertilized periodically with a 200 ppm solution of commercial Scotts Peters® Professional® General Purpose 20-20-20 Water Soluble Fertilizer, amended to 10 ppm with a commercial iron-chelate micronutrient fertilizer. The solution was supplied at time of watering via a liquid fertilizer injector.\n(§3) At treatment time, test pots were flooded to 3 cm above the soil surface and maintained at that water depth for the duration of the test. Chemical treatments were formulated in acetone and applied directly to the paddy water (i.e., postemergence to flood). Make-up volumes of acetone were added to ensure that all pots were treated with a consistent volume. Test pots were maintained in the greenhouse. A randomized complete block design was employed. Five replicates of each treatment, alone and in mixture, were used. Each species was visually evaluated for treatment effects by comparing those treated to untreated controls and rated for plant response after 21 days."}, "barnyardgrass (ECHCG)": {"tested_on": "barnyardgrass (ECHCG)", "assay": "Test 32 greenhouse, simulated flooded rice culture", "assay_type": "in vivo, Echinochloa crus-galli", "design": "scale not given here", "details": "postemergence to flood, 21 DAA", "description": "as §2, §3"}}, "data": [{"smiles": "COC(=O)c1nc(C2CC2)nc(N)c1Cl", "note": "[Compound 2, methyl 6-amino-5-chloro-2-cyclopropyl-4-pyrimidinecarboxylate]", "values": [{"measurement": "SINAR Obs (scale 0 to 100)", "setting": "wild mustard (SINAR); Cpd 2 4 g a.i./ha", "result": 62}, {"measurement": "SINAR Obs (scale 0 to 100)", "setting": "wild mustard (SINAR); Cpd 2 8 g a.i./ha", "result": 65}, {"measurement": "SINAR Obs (scale 0 to 100)", "setting": "wild mustard (SINAR); Cpd 2 16 g a.i./ha", "result": 72}, {"measurement": "SETFA Obs (percent of control)", "setting": "giant foxtail (SETFA) [1]; Cpd 2 15 g a.i./ha, 14 DAA", "result": 93, "unit": "%"}, {"measurement": "SETFA Obs (percent of control)", "setting": "giant foxtail (SETFA) [1]; Cpd 2 15 g a.i./ha, 28 DAA", "result": 98, "unit": "%"}, {"measurement": "SETFA Obs (percent of control)", "setting": "giant foxtail (SETFA) [1]; Cpd 2 15 g a.i./ha, 56 DAA", "result": 100, "unit": "%"}, {"measurement": "SETFA Obs (percent of control)", "setting": "giant foxtail (SETFA) [1]; Cpd 2 30 g a.i./ha, 14 DAA", "result": 85, "unit": "%"}, {"measurement": "SETFA Obs (percent of control)", "setting": "giant foxtail (SETFA) [1]; Cpd 2 30 g a.i./ha, 28 DAA", "result": 88, "unit": "%"}, {"measurement": "SETFA Obs (percent of control)", "setting": "giant foxtail (SETFA) [1]; Cpd 2 30 g a.i./ha, 56 DAA", "result": 80, "unit": "%"}, {"measurement": "SETFA Obs (percent of control)", "setting": "giant foxtail (SETFA) [1]; Cpd 2 45 g a.i./ha, 14 DAA", "result": 73, "unit": "%"}, {"measurement": "SETFA Obs (percent of control)", "setting": "giant foxtail (SETFA) [1]; Cpd 2 45 g a.i./ha, 28 DAA", "result": 80, "unit": "%"}, {"measurement": "SETFA Obs (percent of control)", "setting": "giant foxtail (SETFA) [1]; Cpd 2 45 g a.i./ha, 56 DAA", "result": 83, "unit": "%"}, {"measurement": "CHEAL Obs", "setting": "[2]; 14 DAA, 30 g a.i./ha", "result": 88}, {"measurement": "CHEAL Obs", "setting": "[2]; 14 DAA, 45 g a.i./ha", "result": 63}, {"measurement": "CHEAL Obs", "setting": "[2]; 14 DAA, 60 g a.i./ha", "result": 100}, {"measurement": "CHEAL Obs", "setting": "[2]; 28 DAA, 30 g a.i./ha", "result": 100}, {"measurement": "CHEAL Obs", "setting": "[2]; 28 DAA, 45 g a.i./ha", "result": 100}, {"measurement": "CHEAL Obs", "setting": "[2]; 28 DAA, 60 g a.i./ha", "result": 100}, {"measurement": "CHEAL Obs", "setting": "[2]; 56 DAA, 30 g a.i./ha", "result": 100}, {"measurement": "CHEAL Obs", "setting": "[2]; 56 DAA, 45 g a.i./ha", "result": 100}, {"measurement": "CHEAL Obs", "setting": "[2]; 56 DAA, 60 g a.i./ha", "result": 100}, {"measurement": "SETFA Obs", "setting": "giant foxtail (SETFA) [3]; 28 DAA, 30 g a.i./ha", "result": 98}, {"measurement": "SETFA Obs", "setting": "giant foxtail (SETFA) [3]; 28 DAA, 45 g a.i./ha", "result": 97}, {"measurement": "SETFA Obs", "setting": "giant foxtail (SETFA) [3]; 28 DAA, 60 g a.i./ha", "result": 99}, {"measurement": "SETFA Obs", "setting": "giant foxtail (SETFA) [3]; 56 DAA, 30 g a.i./ha", "result": 50}, {"measurement": "SETFA Obs", "setting": "giant foxtail (SETFA) [3]; 56 DAA, 45 g a.i./ha", "result": 73}, {"measurement": "SETFA Obs", "setting": "giant foxtail (SETFA) [3]; 56 DAA, 60 g a.i./ha", "result": 70}]}, {"smiles": "CCNc1nc(Cl)nc(NC(C)C)n1", "note": "[Atrazine, atrazine, reference compound]", "values": [{"measurement": "ZEAMI Obs", "setting": "flint corn (ZEAMI); 16 DAA", "result": 0}, {"measurement": "ZEAMI Obs", "setting": "flint corn (ZEAMI); 30 DAA", "result": 0}, {"measurement": "ZEAMI Obs", "setting": "flint corn (ZEAMI); 44 DAA", "result": 0}, {"measurement": "ZEAMI Obs", "setting": "flint corn (ZEAMI); 62 DAA", "result": 0}, {"measurement": "ZEAMI Obs", "setting": "flint corn (ZEAMI); 91 DAA", "result": 0}]}, {"smiles": "Nc1nc(C2CC2)nc(C(=O)O)c1Cl", "note": "[Compound 1, 6-amino-5-chloro-2-cyclopropyl-4-pyrimidinecarboxylic acid]", "values": [{"measurement": "CYPDI Obs", "setting": "[4]; Cpd 1 31.25 g a.i./ha", "result": 80}, {"measurement": "CYPDI Obs", "setting": "[4]; Cpd 1 62.5 g a.i./ha", "result": 74}, {"measurement": "CYPDI Obs", "setting": "[4]; Cpd 1 125 g a.i./ha", "result": 92}, {"measurement": "ECHCG Obs", "setting": "barnyardgrass (ECHCG); Cpd 1 31.25 g a.i./ha", "result": 10}, {"measurement": "ECHCG Obs", "setting": "barnyardgrass (ECHCG); Cpd 1 62.5 g a.i./ha", "result": 19}, {"measurement": "ECHCG Obs", "setting": "barnyardgrass (ECHCG); Cpd 1 125 g a.i./ha", "result": 37}]}]}
